Measured values reported in ChEMBL document CHEMBL5126640, “Sanggenon C Suppresses Tumorigenesis of Gastric Cancer by Blocking ERK-Drp1-Mediated Mitochondrial Fission” (J Nat Prod, 2022).
pIC50: −log10 of the molar value. Activity calls are given as the source filed them. The rule behind the calls is not given here.

What was measured:
HGC-27 [1] = assay: Induction of apoptosis in human HGC-27 cells assessed as late apoptotic cells at 10 uM measured after 24 hrs by AnnexinV-FITC/PI staining based flowcytometry method (reference value: 5.4%); format: functional
HGC-27 [2] = assay: Induction of apoptosis in human HGC-27 cells transfected with pcDNA3.1-Drp1 plasmid to overexpress DRP1 assessed as late apoptotic cells measured after 24 hrs by AnnexinV-FITC/PI staining based flow cytometry method (reference value: 2.0%); format: functional
[3] = Toxicity in nude mouse xenografted with human AGS cells assessed as effect on liver morphology at 10 to 20 mg/kg, ip administered every other day and monitored every 3 days by Hematoxyin-eosin staining based analysis; format: organism-based; conditions: in vivo, 72 h, dose 10-20 mg/kg, time 3 day
HGC-27 [4] = assay: Inhibition of colony formation of human HGC-27 cells assessed as reduction in colony number at 0 to 10 uM measured after 24 hrs by crystal violet staining assay; format: functional, cell-based; conditions: dose 0-10 µM
AGS [5] = assay: Induction of apoptosis in human AGS cells assessed as necrotic cells at 10 uM measured after 24 hrs by AnnexinV-FITC/PI staining based flowcytometry method (reference value: 0.2%); format: functional
AGS [6] = assay: Induction of cell cycle arrest in human AGS cells assessed as accumulation of cells at G0/G1 phase at 8 uM incubated for 24 hrs propidium iodide staining-based flow cytometric analysis (reference value: 46.51%); format: functional
HGC-27 [7] = assay: Induction of cell cycle arrest in human HGC-27 cells assessed as accumulation of cells at G0/G1 phase at 8 uM incubated for 24 hrs propidium iodide-A staining-based flow cytometric analysis (reference value: 45.21%); format: functional
HGC-27 [8] = assay: Induction of apoptosis in human HGC-27 cells transfected with pcDNA3.1-Drp1 plasmid to overexpress DRP1 assessed as viable cells measured after 24 hrs by AnnexinV-FITC/PI staining based flow cytometry method (reference value: 95.8%); format: functional
AGS [9] = assay: Inhibition of mitochondrial fission in human AGS cells assessed as reduction in ATP content at 0 to 10 uM measured after 24 hrs by microplate reader assay; format: functional, cell-based; conditions: dose 0-10 µM
[10] = Toxicity in nude mouse xenografted with human AGS cells assessed as effect on body weight at 10 to 20 mg/kg, ip administered every other day and monitored every 3 days; format: organism-based; conditions: in vivo, 72 h, dose 10-20 mg/kg, time 3 day
AGS [11] = assay: Antitumor activity against human AGS cells xenografted in nude mouse assessed as suppression of tumor burden at 10 to 20 mg/kg, ip administered every other day and monitored every 3 days; format: functional, organism-based; conditions: dose 10-20 mg/kg, time 3.0 day
HGC-27 [12] = assay: Induction of apoptosis in human HGC-27 cells assessed as necrotic cells measured after 24 hrs by AnnexinV-FITC/PI staining based flow cytometry method (reference value: 0.1 %); format: functional
AGS [13] = assay: Induction of cell cycle arrest in human AGS cells assessed as decrease in CDK4 level at 0 to 10 uM by Western blot analysis; format: functional, cell-based; conditions: dose 0-10 µM
HGC-27 [14] = assay: Inhibition of mitochondrial fission in human HGC-27 cells assessed as reduction in punctiform mitochondria at 0 to 6 uM measured after 24 hrs by mitotracker based confocal microscopy; format: functional; conditions: dose 0-6 µM
HGC-27 [15] = assay: Induction of apoptosis in human HGC-27 cells assessed as viable cells at 10 uM measured after 24 hrs by AnnexinV-FITC/PI staining based flowcytometry method (reference value: 91.1%); format: functional; conditions: read-out: Activity
AGS [16] = assay: Induction of apoptosis in human AGS cells assessed as necrotic cells at 8 uM measured after 24 hrs by AnnexinV-FITC/PI staining based flowcytometry method (reference value: 0.2%); format: functional
AGS [17] = assay: Induction of apoptosis in human AGS cells transfected with pcDNA3.1-Drp1 plasmid to overexpress DRP1 assessed as necrotic cells and measured after 24 hrs by AnnexinV-FITC/PI staining based flow cytometry method (reference value: 0.2 %); format: functional
HGC-27 [18] = assay: Induction of apoptosis in human HGC-27 cells assessed as downregulation of Bcl-2 level at 0 to 10 uM by Western blot analysis; format: functional, cell-based; conditions: dose 0-10 µM
HGC-27 [19] = assay: Antiproliferative activity against human HGC-27 cells assessed as reduction in cell growth measured after 24 hrs by CCK8 assay; format: functional, cell-based; conditions: HGC-27, 24 h
HGC-27 [20] = assay: Inhibition of mitochondrial fission in human HGC-27 cells assessed as reduction in ATP content at 0 to 10 uM measured after 24 hrs by microplate reader assay; format: functional, cell-based; conditions: dose 0-10 µM
AGS [21] = assay: Induction of apoptosis in human AGS cells assessed as viable cells at 8 uM measured after 24 hrs by AnnexinV-FITC/PI staining based flowcytometry method (reference value: 95.2%); format: functional; conditions: read-out: Activity
AGS [22] = assay: Induction of apoptosis in human AGS cells assessed as viable cells at 6 uM measured after 24 hrs by AnnexinV-FITC/PI staining based flowcytometry method (reference value: 95.2%); format: functional; conditions: read-out: Activity
AGS [23] = assay: Induction of cell cycle arrest in human AGS cells assessed as decrease in Cyclin D1 level at 0 to 10 uM by Western blot analysis; format: functional, cell-based; conditions: dose 0-10 µM
AGS [24] = assay: Induction of apoptosis in human AGS cells assessed as early apoptotic cells at 10 uM measured after 24 hrs by AnnexinV-FITC/PI staining based flowcytometry method (reference value: 1.2%); format: functional
HGC-27 [25] = assay: Induction of mitochondrial dysfunction in human HGC-27 cells assessed as decrease in mitochondrial membrane potential measured after 24 hrs by JC-1 staining based flow cytometry; format: functional, cell-based; conditions: DDE = dose-dependent effect
HGC-27 [26] = assay: Induction of cell cycle arrest in human HGC-27 cells assessed as decrease in CDK4 level at 0 to 10 uM by Western blot analysis; format: functional, cell-based; conditions: dose 0-10 µM
AGS [27] = assay: Induction of apoptosis in human AGS cells assessed as downregulation of Bcl-2 level at 0 to 10 uM by Western blot analysis; format: functional, cell-based; conditions: dose 0-10 µM
HGC-27 [28] = assay: Induction of cell cycle arrest in human HGC-27 cells assessed as accumulation of cells at G0/G1 phase at 6 uM incubated for 24 hrs propidium iodide staining-based flow cytometric analysis (reference value: 45.21%); format: functional
AGS [29] = assay: Induction of apoptosis in human AGS cells assessed as necrotic cells measured after 24 hrs by AnnexinV-FITC/PI staining based flow cytometry method (reference value: 0.1%); format: functional
AGS [30] = assay: Induction of apoptosis in human AGS cells assessed as early apoptotic cells at 8 uM measured after 24 hrs by AnnexinV-FITC/PI staining based flowcytometry method (reference value: 1.2%); format: functional
AGS [31] = assay: Inhibition of ERK signalling pathway in human AGS cells assessed as downregulation of p-ERK levels at 0 to 10 uM and measured after 24 hrs by western blot analysis; format: cell-based; conditions: dose 0-10 µM
HGC-27 [32] = assay: Induction of apoptosis in human HGC-27 cells assessed as late apoptotic cells at 6 uM measured after 24 hrs by AnnexinV-FITC/PI staining based flowcytometry method (reference value: 5.4%); format: functional
[33] = Toxicity in nude mouse xenografted with human AGS cells assessed as effect on lung morphology at 10 to 20 mg/kg, ip administered every other day and monitored every 3 days by Hematoxyin-eosin staining based analysis; format: organism-based; conditions: in vivo, 72 h, dose 10-20 mg/kg, time 3 day
AGS [34] = assay: Induction of cell cycle arrest in human AGS cells assessed as accumulation of cells at G0/G1 phase at 6 uM incubated for 24 hrs propidium iodide staining-based flow cytometric analysis (reference value: 46.51%); format: functional

CC(C)=CCC12Oc3cc(O)ccc3C1(O)Oc1cc(O)c([C@H]3C=C(C)C[C@H](c4ccc(O)cc4O)[C@H]3C(=O)c3ccc(O)cc3O)c(O)c1C2=O (some centres undefined)
Activity (HGC-27 [1]): 15.9% | Activity (HGC-27 [2]): 1.8% | Activity [3]: Non-Toxic | inhibition (HGC-27 [4]): Active | Activity (AGS [5]): 0.3% | Activity (AGS [6]): 54.9% | Activity (HGC-27 [7]): 62.4% | Activity (HGC-27 [8]): 95.4% | inhibition (AGS [9]): Active | Activity [10]: Non-Toxic | Activity (AGS [11]): Active | Activity (HGC-27 [12]): 0.4% | Activity (AGS [13]): Active | inhibition (HGC-27 [14]): Active | viability at 10 µM (HGC-27 [15]): 72.4% | Activity (AGS [16]): 0.3% | Activity (AGS [17]): 0.1% | Activity (HGC-27 [18]): Active | pIC50 (HGC-27 [19]): 5.04 | inhibition (HGC-27 [20]): Active | viability at 8 µM (AGS [21]): 89.8% | viability at 6 µM (AGS [22]): 90.1% | Activity (AGS [23]): Active | Activity (AGS [24]): 3.2% | Activity (HGC-27 [25]): Dde | Activity (HGC-27 [26]): Active | Activity (AGS [27]): Active | Activity (HGC-27 [28]): 61.3% | Activity (AGS [29]): 0.1% | Activity (AGS [30]): 2.1% | inhibition (AGS [31]): Active | Activity (HGC-27 [32]): 10% | Activity [33]: Non-Toxic | Activity (AGS [34]): 54.7%
